In US10711036B2, “MALT1 inhibitors and uses thereof” (Cornell University, priority 2015, dated 2020):
*1 amine or outer side, *2 acyl side, *3 side chain or, on linkers, in order; H or OH if unused. Where a SMILES comes first, the peptide text is derived from it. [ ]: non-standard residue; d: D form. The star is where a group is joined. cisHyp = O=C(O)[C@@H]1C[C@H](O)CN1; Hydrocinnamoyl = O=C(CCc1ccccc1)*; Chg = N[C@H](C(=O)O)C1CCCCC1; Phg = N[C@H](C(=O)O)c1ccccc1; Tle = CC(C)(C)[C@H](N)C(=O)O; NMeV = CN[C@H](C(=O)O)C(C)C; αMeP = C[C@@]1(C(=O)O)CCCN1; Pip = O=C(O)[C@@H]1CCCCN1; 3Abz = Nc1cccc(C(=O)O)c1; ClZ = O=C(OCc1ccccc1Cl)*; Cbz = O=C(OCc1ccccc1)*; PhAc = O=C(Cc1ccccc1)*; CO = O=C([*:1])[*:2]; Bz = O=C(c1ccccc1)*; NHPh = c1ccc(N*)cc1; CH2F = FC*

Tests used:
MALT1 = MALT1 (Homo sapiens (Human), UniProt Q9UDY8); test: Inhibition constants (Ki) for inhibition of MALT1; format: biochemical; details: 100 nM MALT1 used for the assay
Description: For exemplary compounds of the disclosure, Ki for inhibition of MALT1 was measured (Table E11). A concentration of 100 nM MALT1 was used for the assay.

OCI-LY3 = test: Cell growth inhibition assay (CellTiter-Glo, 96 hours), OCI-LY3; format: cell-based, human; details: OCI-LY3 cells, treated at t=0 and t=48 hours, ATP luminescence
Description: DLBCL cell lines were grown in exponential growth conditions during the 96 hours of treatment. Cells were treated twice: at t=0 and t=48 hours, and cell viability was determined by ATP quantification using a luminescent method ([…]-GLO, Promega, Madison, Wis.). Cell viability in drug-treated cells was normalized to vehicle controls (fractional viability) and results are given as 1-fractional viability.
Experiments were Performed in Triplicate.

Chain of MALT1 (Q9UDY8 whole entry): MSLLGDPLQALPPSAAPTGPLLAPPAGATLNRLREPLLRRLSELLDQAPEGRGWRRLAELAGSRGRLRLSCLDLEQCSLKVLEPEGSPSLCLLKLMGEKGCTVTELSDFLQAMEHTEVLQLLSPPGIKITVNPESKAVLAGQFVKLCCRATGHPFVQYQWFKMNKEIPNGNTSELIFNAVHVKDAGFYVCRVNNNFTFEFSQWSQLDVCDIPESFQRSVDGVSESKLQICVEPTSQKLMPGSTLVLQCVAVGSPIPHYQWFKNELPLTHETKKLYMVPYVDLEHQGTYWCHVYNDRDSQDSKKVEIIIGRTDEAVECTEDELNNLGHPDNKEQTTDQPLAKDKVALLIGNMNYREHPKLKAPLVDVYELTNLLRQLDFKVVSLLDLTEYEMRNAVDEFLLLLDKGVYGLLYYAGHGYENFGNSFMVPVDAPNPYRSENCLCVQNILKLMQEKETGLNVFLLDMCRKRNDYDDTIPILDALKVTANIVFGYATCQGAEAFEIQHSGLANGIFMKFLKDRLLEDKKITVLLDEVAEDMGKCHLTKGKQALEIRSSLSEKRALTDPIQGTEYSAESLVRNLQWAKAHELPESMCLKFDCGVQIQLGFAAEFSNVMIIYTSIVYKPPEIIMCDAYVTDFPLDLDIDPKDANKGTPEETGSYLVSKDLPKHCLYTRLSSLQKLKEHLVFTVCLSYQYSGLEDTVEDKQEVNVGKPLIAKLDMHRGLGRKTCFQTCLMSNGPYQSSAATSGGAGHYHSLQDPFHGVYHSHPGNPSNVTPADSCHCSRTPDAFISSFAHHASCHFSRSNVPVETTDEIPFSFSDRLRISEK

Compound	Ki (MALT1) [nM]	GI50 (OCI-LY3; Homo sapiens) [nM]	GI50 (OCI-LY3) [nM]
CC(C)(C)[C@H](NC(=O)OCc1ccccc1)C(=O)N1CCC[C@H]1C(=O)N[C@@H](CCCNC(=N)N)C(=O)CF [Compound 103] (Cbz-[Tle]-Pro-Arg-CH2F)	43	1440	
N=C(N)NCCC[C@H](NC(=O)[C@@H]1CCCN1C(=O)[C@@H](NC(=O)OCc1ccccc1)c1ccccc1)C(=O)CF [Compound 104] (Cbz-[Phg]-Pro-Arg-CH2F)	154	8050	
N=C(N)NCCC[C@H](NC(=O)[C@@H]1CCCN1C(=O)[C@@H](NC(=O)OCc1ccccc1)c1cccnc1)C(=O)CF [Compound 105]	55	4260	
N=C(N)NCCC[C@H](NC(=O)[C@@H]1CCCN1C(=O)[C@H](NC(=O)OCc1ccccc1)c1cccnc1)C(=O)CF [Compound 106]	146	8430	
N=C(N)NCCC[C@H](NC(=O)[C@@H]1CCCCN1C(=O)[C@@H](NC(=O)OCc1ccccc1)C1CCCCC1)C(=O)CF [Compound 108] (Cbz-[Chg]-[Pip]-Arg-CH2F)	37	1330	
CC(C)[C@H](NC(=O)OCc1ccccc1)C(=O)N1C[C@@H](O)C[C@H]1C(=O)N[C@@H](CCCNC(=N)N)C(=O)CF [Compound 110] (Cbz-Val-[cisHyp]-Arg-CH2F)	49	1070	
CC(C)[C@H](NC(=O)OCc1ccccc1)C(=O)N1CCC[C@@]1(C)C(=O)N[C@@H](CCCNC(=N)N)C(=O)CF [Compound 111] (Cbz-Val-[αMeP]-Arg-CH2F)	158	10500	
CC(C)[C@H](NC(=O)c1ccccc1)C(=O)N1CCC[C@H]1C(=O)N[C@@H](CCCNC(=N)N)C(=O)CF [Compound 113] (Bz-Val-Pro-Arg-CH2F)	40	660	
CC(C)[C@H](NC(=O)Cc1ccccc1)C(=O)N1CCC[C@H]1C(=O)N[C@@H](CCCNC(=N)N)C(=O)CF [Compound 117] (PhAc-Val-Pro-Arg-CH2F)	42	3370	
CC(C)[C@H](NC(=O)Cc1cccc(Br)c1)C(=O)N1CCC[C@H]1C(=O)N[C@@H](CCCNC(=N)N)C(=O)CF [Compound 118]	46	2910	
CC(C)[C@H](NC(=O)CCc1ccccc1)C(=O)N1CCC[C@H]1C(=O)N[C@@H](CCCNC(=N)N)C(=O)CF [Compound 119] (Hydrocinnamoyl-Val-Pro-Arg-CH2F)	43	1880	
COc1ccccc1C(=O)N[C@H](C(=O)N1CCC[C@H]1C(=O)N[C@@H](CCCNC(=N)N)C(=O)CF)C(C)C [Compound 121]	109	7290	
COc1cccc(C(=O)N[C@H](C(=O)N2CCC[C@H]2C(=O)N[C@@H](CCCNC(=N)N)C(=O)CF)C(C)C)c1 [Compound 122]	75	2000	
COc1ccc(C(=O)N[C@H](C(=O)N2CCC[C@H]2C(=O)N[C@@H](CCCNC(=N)N)C(=O)CF)C(C)C)cc1 [Compound 123]	50	1670	
CC(C)[C@H](NC(=O)c1cnn(C)c1)C(=O)N1CCC[C@H]1C(=O)N[C@@H](CCCNC(=N)N)C(=O)CF [Compound 124]	100	16800	
Cc1nc(C(=O)N[C@H](C(=O)N2CCC[C@H]2C(=O)N[C@@H](CCCNC(=N)N)C(=O)CF)C(C)C)cs1 [Compound 125]		9650	
CC(C)[C@H](NC(=O)c1ccc(C#N)cc1)C(=O)N1CCC[C@H]1C(=O)N[C@@H](CCCNC(=N)N)C(=O)CF [Compound 126]	60	6660	
CC(C)[C@H](NC(=O)c1ccc(N2CCOCC2)cc1)C(=O)N1CCC[C@H]1C(=O)N[C@@H](CCCNC(=N)N)C(=O)CF [Compound 127]	75	> 20000	
CC(C)[C@H](NC(=O)c1csc(N2CCOCC2)n1)C(=O)N1CCC[C@H]1C(=O)N[C@@H](CCCNC(=N)N)C(=O)CF [Compound 128]	111	> 20000	
CC(C)[C@H](NC(=O)Nc1ccccc1)C(=O)N1CCC[C@H]1C(=O)N[C@@H](CCCNC(=N)N)C(=O)CF [Compound 129] ({NHPh-CO}-Val-Pro-Arg-CH2F)	52	1520	
CC(C)[C@H](NS(=O)(=O)c1ccc(Br)cc1)C(=O)N1CCC[C@H]1C(=O)N[C@@H](CCCNC(=N)N)C(=O)CF [Compound 130]		3720	
CC(C)[C@H](NC(=O)c1cccc(N2CCOCC2)c1)C(=O)N1CCC[C@H]1C(=O)N[C@@H](CCCNC(=N)N)C(=O)CF [Compound 131]	58	14500	
CC(C)[C@H](NC(=O)c1cccc(N2CCN(C)CC2)c1)C(=O)N1CCC[C@H]1C(=O)N[C@@H](CCCNC(=N)N)C(=O)CF [Compound 132]	175	> 20000	

Compound	Ki (MALT1) [nM]	GI50 (OCI-LY3; Homo sapiens) [nM]	GI50 (OCI-LY3) [nM]
CC(=O)Nc1cccc(C(=O)N[C@H](C(=O)N2CCC[C@H]2C(=O)N[C@@H](CCCNC(=N)N)C(=O)CF)C(C)C)c1 [Compound 133] (Ac-[3Abz]VPR-CH2F)	54	> 20000	
CC(C)[C@H](NC(=O)c1cccc(C#N)c1)C(=O)N1CCC[C@H]1C(=O)N[C@@H](CCCNC(=N)N)C(=O)CF [Compound 134]	39	3690	
CC(C)[C@H](NC(=O)c1ccc(C(F)(F)F)cc1)C(=O)N1CCC[C@H]1C(=O)N[C@@H](CCCNC(=N)N)C(=O)CF [Compound 135]	132	120	
CC(C)[C@H](NC(=O)c1ccc(Cl)cc1)C(=O)N1CCC[C@H]1C(=O)N[C@@H](CCCNC(=N)N)C(=O)CF [Compound 136]	67	1240	
CC(C)[C@H](NC(=O)c1ccc(-c2ccccc2)cc1)C(=O)N1CCC[C@H]1C(=O)N[C@@H](CCCNC(=N)N)C(=O)CF [Compound 137]	30	550	
CC(C)[C@H](NC(=O)c1ccc(Br)s1)C(=O)N1CCC[C@H]1C(=O)N[C@@H](CCCNC(=N)N)C(=O)CF [Compound 138]		1240	
CC(C)[C@H](NC(=O)c1ncc(-c2ccccc2)s1)C(=O)N1CCC[C@H]1C(=O)N[C@@H](CCCNC(=N)N)C(=O)CF [Compound 139]	121	1750	
CC(C)[C@H](NC(=O)OCc1ccccc1)C(=O)N[C@@H](CO)C(=O)N[C@@H](CCCNC(=N)N)C(=O)CF [Compound 140]	64	290	
N=C(N)NCCC[C@H](NC(=O)[C@@H]1CCCN1C(=O)[C@H](Cc1cccnc1)NC(=O)c1ccc(Br)cc1)C(=O)CF [Compound 142]		14100	
CC(C)[C@H](NC(=O)c1ccc(Br)c(C#N)c1)C(=O)N1CCC[C@H]1C(=O)N[C@@H](CCCNC(=N)N)C(=O)CF [Compound 146]		500	
CC(C)[C@H](NC(=O)c1ccc(Br)cc1)C(=O)N[C@@H](CO)C(=O)N[C@@H](CCCNC(=N)N)C(=O)CF [Compound 149]	64		
CC(C)[C@H](NC(=O)c1ccc2ccccc2c1)C(=O)N1CCC[C@H]1C(=O)N[C@@H](CCCNC(=N)N)C(=O)CF [Compound 152]	47		
CC(C)c1ccc(C(=O)N[C@H](C(=O)N2CCC[C@H]2C(=O)N[C@@H](CCCNC(=N)N)C(=O)CF)C(C)C)cc1 [Compound 163]		270	
CC(C)[C@H](NC(=O)Nc1cccc(Cl)c1)C(=O)N1CCC[C@H]1C(=O)N[C@H](CCCNC(=N)N)C(=O)CF [Compound 166]	557		
CC(C)[C@H](NC(=O)OCc1ccc(Cl)cc1)C(=O)N1CCC[C@H]1C(=O)N[C@@H](CCCNC(=N)N)C(=O)CF [Compound 168]	32		
CC(C)[C@H](NC(=O)OCc1cccc(Cl)c1)C(=O)N1CCC[C@H]1C(=O)N[C@@H](CCCNC(=N)N)C(=O)CF [Compound 169]	22		
CC(C)[C@H](NC(=O)OCc1ccccc1Cl)C(=O)N1CCC[C@H]1C(=O)N[C@@H](CCCNC(=N)N)C(=O)CF [Compound 170] (ClZ-Val-Pro-Arg-CH2F)	27		
N=C(N)NCCC[C@H](NC(=O)[C@@H]1C[C@@H](O)CN1C(=O)[C@@H](NC(=O)c1ccc(Br)cc1)C1CCCCC1)C(=O)CF [Compound 172]		60	
CC(C)[C@H](NC(=O)c1ccc(Br)cc1)C(=O)N1C[C@H](C#N)C[C@H]1C(=O)N[C@@H](CCCNC(=N)N)C(=O)CF [Compound 177]	28		
CC(C)[C@H](NC(=O)c1ccc(Br)cc1)C(=O)N[C@@H](C)C(=O)N[C@@H](CCCNC(=N)N)C(=O)CF [Compound 178]	38		
N=C(N)NCCC[C@H](NC(=O)[C@@H]1CCCN1C(=O)[C@H](CC1CCCCC1)NC(=O)c1ccc(Br)cc1)C(=O)CF [Compound 187]	122		
CC(C)[C@H](NC(=O)OCc1ccccc1)C(=O)N1CCC[C@H]1C(=O)N[C@@H](CCCNC1=NCCN1)C(=O)CF [Compound 201]			> 5000
CN[C@H](C(=O)N1CCC[C@H]1C(=O)N[C@@H](CCCNC(=N)N)C(=O)CF)C(C)C [Compound 205] (H-[NMeV]-Pro-Arg-CH2F)	> 200		
